From the NIST ThermoML archive (doi:10.1016/j.fluid.2010.10.028)

Assay: xn = mol fraction of the nth substance listed
Conditions: Liquid, Vibrating tube method

CC(C)=O [acetone] + CCCCCCC
Conditions	mass density [kg/m3]
397.28 K, 64890 kPa, x1 = 0.7024	708.2
397.28 K, 69880 kPa, x1 = 0.7024	712.51
397.28 K, 74860 kPa, x1 = 0.7024	716.61
397.28 K, 74910 kPa, x1 = 0.492	698.27
397.28 K, 74910 kPa, x1 = 0.801	727.94
397.28 K, 74920 kPa, x1 = 0.611	707.37
397.28 K, 79830 kPa, x1 = 0.7024	720.53
397.28 K, 79900 kPa, x1 = 0.492	702.07
397.28 K, 84840 kPa, x1 = 0.7024	724.33
397.28 K, 84890 kPa, x1 = 0.492	705.69
397.28 K, 89820 kPa, x1 = 0.7024	727.97
397.28 K, 94800 kPa, x1 = 0.7024	731.49
397.28 K, 94850 kPa, x1 = 0.492	712.56
397.28 K, 99780 kPa, x1 = 0.7024	734.88
397.28 K, 99820 kPa, x1 = 0.801	746.56
397.28 K, 104760 kPa, x1 = 0.7024	738.15
397.28 K, 109780 kPa, x1 = 0.801	753.14
397.28 K, 114820 kPa, x1 = 0.7024	744.47
397.28 K, 114850 kPa, x1 = 0.492	725.01
397.28 K, 114850 kPa, x1 = 0.801	756.36
397.28 K, 114870 kPa, x1 = 0.611	734.74
397.28 K, 119800 kPa, x1 = 0.7024	747.44
397.28 K, 119860 kPa, x1 = 0.611	737.69
397.28 K, 124830 kPa, x1 = 0.7024	750.39
397.28 K, 124840 kPa, x1 = 0.492	730.68
397.28 K, 124840 kPa, x1 = 0.801	762.38
397.28 K, 124860 kPa, x1 = 0.611	740.54
397.28 K, 129790 kPa, x1 = 0.7024	753.19
397.28 K, 129840 kPa, x1 = 0.492	733.39
397.28 K, 129840 kPa, x1 = 0.611	743.3
397.29 K, 19850 kPa, x1 = 0.492	638.92
397.29 K, 24860 kPa, x1 = 0.492	646.54
397.29 K, 39850 kPa, x1 = 0.492	665.68
397.29 K, 49840 kPa, x1 = 0.492	676.28
397.29 K, 69930 kPa, x1 = 0.492	694.29
397.29 K, 89860 kPa, x1 = 0.492	709.18
397.29 K, 99830 kPa, x1 = 0.492	715.82
397.29 K, 104800 kPa, x1 = 0.492	718.94
397.29 K, 109740 kPa, x1 = 0.7024	741.31
397.29 K, 109770 kPa, x1 = 0.492	722
397.29 K, 119840 kPa, x1 = 0.492	727.87
407.2 K, 1850 kPa, x1 = 0.4	626.34
407.2 K, 1850 kPa, x1 = 0.8992	626.34
407.2 K, 5000 kPa, x1 = 0.4	635.78
407.2 K, 5000 kPa, x1 = 0.8992	635.78
407.2 K, 10000 kPa, x1 = 0.4	648.49
407.2 K, 10000 kPa, x1 = 0.8992	648.49
407.2 K, 14980 kPa, x1 = 0.4	659.29
407.2 K, 14980 kPa, x1 = 0.8992	659.29
407.2 K, 49890 kPa, x1 = 0.4	710.54
407.2 K, 49890 kPa, x1 = 0.8992	710.54
407.21 K, 1650 kPa, x1 = 0.611	594.88
407.21 K, 1660 kPa, x1 = 0.801	612.07
407.21 K, 4870 kPa, x1 = 0.611	604.63
407.21 K, 4870 kPa, x1 = 0.801	621.91
407.21 K, 9870 kPa, x1 = 0.611	617.29
407.21 K, 14860 kPa, x1 = 0.801	645.72
407.21 K, 14880 kPa, x1 = 0.611	627.98
407.21 K, 19850 kPa, x1 = 0.801	655.22
407.21 K, 19960 kPa, x1 = 0.4	668.77
407.21 K, 19960 kPa, x1 = 0.8992	668.77
407.21 K, 24940 kPa, x1 = 0.4	677.3
407.21 K, 24940 kPa, x1 = 0.8992	677.3
407.21 K, 29940 kPa, x1 = 0.4	685.05
407.21 K, 29940 kPa, x1 = 0.8992	685.05
407.21 K, 34930 kPa, x1 = 0.4	692.12
407.21 K, 34930 kPa, x1 = 0.8992	692.12
407.21 K, 39920 kPa, x1 = 0.4	698.68
407.21 K, 39920 kPa, x1 = 0.8992	698.68
407.21 K, 44900 kPa, x1 = 0.4	704.79
407.21 K, 44900 kPa, x1 = 0.8992	704.79
407.21 K, 54880 kPa, x1 = 0.4	715.92
407.21 K, 54880 kPa, x1 = 0.8992	715.92
407.21 K, 59880 kPa, x1 = 0.4	721.06
407.21 K, 59880 kPa, x1 = 0.8992	721.06
407.21 K, 64860 kPa, x1 = 0.4	725.91
407.21 K, 64860 kPa, x1 = 0.8992	725.91
407.21 K, 69840 kPa, x1 = 0.4	730.52
407.21 K, 69840 kPa, x1 = 0.8992	730.52
407.21 K, 74830 kPa, x1 = 0.4	734.95
407.21 K, 74830 kPa, x1 = 0.8992	734.95
407.21 K, 79810 kPa, x1 = 0.4	739.19
407.21 K, 79810 kPa, x1 = 0.8992	739.19
407.21 K, 84790 kPa, x1 = 0.4	743.24
407.21 K, 84790 kPa, x1 = 0.8992	743.24
407.21 K, 89780 kPa, x1 = 0.4	747.17
407.21 K, 89780 kPa, x1 = 0.8992	747.17
407.22 K, 1650 kPa, x1 = 0.492	588.49
407.22 K, 4850 kPa, x1 = 0.492	597.92
407.22 K, 9860 kPa, x1 = 0.801	634.81
407.22 K, 19860 kPa, x1 = 0.611	637.25
407.22 K, 24840 kPa, x1 = 0.492	637.87
407.22 K, 24850 kPa, x1 = 0.611	645.53
407.22 K, 24850 kPa, x1 = 0.801	663.77
407.22 K, 29850 kPa, x1 = 0.492	645.2
407.22 K, 29860 kPa, x1 = 0.801	671.47
407.22 K, 29870 kPa, x1 = 0.611	653.05
407.22 K, 34850 kPa, x1 = 0.801	678.52
407.22 K, 34860 kPa, x1 = 0.611	659.9
407.22 K, 39850 kPa, x1 = 0.801	685.05
407.22 K, 39860 kPa, x1 = 0.611	666.23
407.22 K, 44860 kPa, x1 = 0.801	691.11
407.22 K, 44870 kPa, x1 = 0.611	672.1
407.22 K, 49870 kPa, x1 = 0.611	677.58
407.22 K, 54850 kPa, x1 = 0.611	682.71
407.22 K, 59830 kPa, x1 = 0.611	687.58
407.22 K, 59840 kPa, x1 = 0.492	679.01
407.22 K, 59840 kPa, x1 = 0.801	707.14
407.22 K, 64930 kPa, x1 = 0.611	692.3
407.22 K, 69830 kPa, x1 = 0.801	716.45
407.22 K, 69920 kPa, x1 = 0.611	696.69
407.22 K, 74910 kPa, x1 = 0.611	700.88
407.22 K, 74920 kPa, x1 = 0.801	720.89
407.22 K, 79900 kPa, x1 = 0.611	704.88
407.22 K, 79920 kPa, x1 = 0.801	725.05
407.22 K, 84880 kPa, x1 = 0.611	708.71
407.22 K, 84890 kPa, x1 = 0.801	729.04
407.22 K, 89850 kPa, x1 = 0.611	712.41
407.22 K, 89860 kPa, x1 = 0.492	703.26
407.22 K, 89890 kPa, x1 = 0.801	732.88
407.22 K, 94740 kPa, x1 = 0.4	750.92
407.22 K, 94740 kPa, x1 = 0.8992	750.92
407.22 K, 94840 kPa, x1 = 0.611	715.96
407.22 K, 94870 kPa, x1 = 0.801	736.56
407.22 K, 99720 kPa, x1 = 0.4	754.58
407.22 K, 99720 kPa, x1 = 0.8992	754.58
407.22 K, 99820 kPa, x1 = 0.611	719.38
407.22 K, 99840 kPa, x1 = 0.801	740.12
407.22 K, 104690 kPa, x1 = 0.4	758.09
407.22 K, 104690 kPa, x1 = 0.8992	758.09
407.22 K, 104790 kPa, x1 = 0.611	722.68
407.22 K, 104820 kPa, x1 = 0.801	743.55
407.22 K, 109650 kPa, x1 = 0.4	761.5
407.22 K, 109650 kPa, x1 = 0.8992	761.5
407.22 K, 109770 kPa, x1 = 0.492	716.44
407.22 K, 109790 kPa, x1 = 0.801	746.89
407.22 K, 109860 kPa, x1 = 0.611	725.93
407.22 K, 114620 kPa, x1 = 0.4	764.8
407.22 K, 114620 kPa, x1 = 0.8992	764.8
407.22 K, 114770 kPa, x1 = 0.801	750.12
407.22 K, 114860 kPa, x1 = 0.492	719.55
407.22 K, 114870 kPa, x1 = 0.611	729.06
407.22 K, 119590 kPa, x1 = 0.4	768
407.22 K, 119590 kPa, x1 = 0.8992	768
407.22 K, 119840 kPa, x1 = 0.492	722.47
407.22 K, 119840 kPa, x1 = 0.801	753.32
407.22 K, 119850 kPa, x1 = 0.611	732.05
407.22 K, 124560 kPa, x1 = 0.4	771.11
407.22 K, 124560 kPa, x1 = 0.8992	771.11
407.22 K, 124850 kPa, x1 = 0.492	725.34
407.22 K, 124850 kPa, x1 = 0.611	735.01
407.22 K, 124850 kPa, x1 = 0.801	756.37
407.22 K, 129820 kPa, x1 = 0.4	774.33
407.22 K, 129820 kPa, x1 = 0.8992	774.33
407.22 K, 129840 kPa, x1 = 0.611	737.84
407.22 K, 129840 kPa, x1 = 0.801	759.34
407.23 K, 4820 kPa, x1 = 0.7024	611.92
407.23 K, 9850 kPa, x1 = 0.492	610.28
407.23 K, 14860 kPa, x1 = 0.492	620.71
407.23 K, 19860 kPa, x1 = 0.492	629.81
407.23 K, 24820 kPa, x1 = 0.7024	653.51
407.23 K, 29820 kPa, x1 = 0.7024	661.13
407.23 K, 34840 kPa, x1 = 0.492	651.87
407.23 K, 39860 kPa, x1 = 0.492	658.08
407.23 K, 44850 kPa, x1 = 0.492	663.81
407.23 K, 49840 kPa, x1 = 0.801	696.75
407.23 K, 49850 kPa, x1 = 0.492	669.19
407.23 K, 54850 kPa, x1 = 0.801	702.09
407.23 K, 54860 kPa, x1 = 0.492	674.25
407.23 K, 64830 kPa, x1 = 0.492	683.5
407.23 K, 64830 kPa, x1 = 0.801	711.9
407.23 K, 69930 kPa, x1 = 0.492	687.88
407.23 K, 74910 kPa, x1 = 0.492	691.98
407.23 K, 79890 kPa, x1 = 0.492	695.9
407.23 K, 84870 kPa, x1 = 0.492	699.66
407.23 K, 94840 kPa, x1 = 0.492	706.73
407.23 K, 99820 kPa, x1 = 0.492	710.09
407.23 K, 104790 kPa, x1 = 0.492	713.3
407.23 K, 129830 kPa, x1 = 0.492	728.11
407.24 K, 1620 kPa, x1 = 0.7024	602.1
407.24 K, 9830 kPa, x1 = 0.7024	624.8
407.24 K, 14840 kPa, x1 = 0.7024	635.66
